As a reminder, the IC50 is the midpoint of a concentration-inhibition curve. Low readings indicate inhibition by little substance, high ones a need for much substance.

The structures appear in SMILES notation.

In ChEMBL document CHEMBL1158108, “C35 terpenoids from the bark of Calocedrus macrolepis var. formosana with activity against human cancer cell lines” (J Nat Prod, 2006) one finds IC50 data, which are given here for three molecules.

In the experiment the test system is KB. Put plainly: Cytotoxicity against human KB cells after 72 hrs. In kind it is functional, cell-based.
For `CC(C)c1cc2c(cc1O)[C@@]1(C)CCCC(C)(C)[C@@H]1C[C@H]2CC1=C[C@@H]2[C@@H](CC1)[C@](C)(O)CC[C@H]2C(C)C` [FERRUGICADINOL], the 50% inhibitory concentration (IC50) is 14.1 µM.

Turning to `COc1cc([C@@H]2c3cc4c(cc3[C@@H](O[C@@H]3O[C@@H]5CO[C@@H](C)O[C@H]5[C@H](O)[C@H]3O)[C@H]3COC(=O)[C@H]23)OCO4)cc(OC)c1O` [ETOPOSIDE], it took 2 µM to reach half-maximal inhibition (IC50).

`C=C1CC[C@@H]([C@H]2C[C@H]3C(C)(C)CCC[C@]3(C)c3cc(O)c(C(C)C)cc32)[C@]2(C)CC[C@@H](C(C)(C)O)C[C@@H]12` [FERRUGIEUDESMOL] returned an IC50 of 11.4 µM.
